Measurements published in patent US20020040062A1, “Protein kinase C activators and their use in decreasing expression of cell antigens” (The Trustees of Columbia University, priority 1993, published 2002).
Read-outs that look alike come from different tables or passages of the source. Marks after values point to notes of the source that are not given here.

B1: IFN-β: recombinant human fibroblast interferon with a serine substituted for a cysteine at position 17 (protein, UniProt P01574 22-187, looked up, variant C17S)
Interferon beta: MSYNLLGFLQRSSNFQSQKLLWQLNGRLEYCLKDRMNFDIPEEIKQLQQFQKEDAALTIYEMLQNIFAIFRQDSSSTGWNETIVENLLANVYHQINHLKTVLEEKLEKEDFTRGKLMSSLHLKRYYGRILHYLKAKEYSHCAWTIVRVEILRNFYFINRLTGYLRN
B2: IFN-γ: recombinant human immune interferon produced in Escherichia coli (protein, UniProt P01579 24-161, looked up)
Interferon gamma: QDPYVKEAENLKKYFNAGHSDVADNGTLFLGILKNWKEESDRKIMQSQIVSFYFKLFKNFKDDQSIQKSVETIKEDMNVKFFNSNKKKRDDFEKLTNYSVTDLNVQRKAIHELIQVMAELSPAAKTGKRKRSQMLFRG

Legend:
T47D cells [1] = test: T47D cell growth assay (Coulter Counter); type: cell-based, human; conditions: for effect on 72 hr growth: 0.1 μg/ml, FIG. 1
Description: (§1) FIG. 1: Effect of H-7, TPA, MEZ and ADMB on T47D cell growth and DNA synthesis. Cell growth assays are presented in (A). T47D cells were seeded at 1×10^4 cells/35 mm tissue culture plate, the medium was changed with the indicated compounds 24 hr later and cell numbers were determined after an additional 72 hr growth at 37° C. by Coulter Counter. Results are the average of triplicate samples/experimental condition which varied by ≦10%. DNA synthesis assays are presented in (B). T47 D cells were seeded at 1.25×10^4 cells in 0.2 ml of media in 96 microtiter plates. Every 24 hr, cultures received 1 μCi of methyl-^3H-thymidine and 8 hr later cells were harvested and TCA precipitable counts were determined. Results are the average from replicate samples exposed to the indicated compounds for 72 hr. Replicate samples varied by ≦10% and replicate studies varied by ≦15%. Further details can be found in “Detailed Description Of The Invention”.
(§2) T47D cells were seeded at 5×10^3 cells/ml in 35 mm tissue culture plates and 24 hr later the medium was changed with the indicated compounds. Seventy-two hr later the cells were resuspended in trysin/versene (0.125%/0.02%, w/w) and counted using a ZM Coulter Counter (Coulter Electronics). For ^3H-thymidine incorporation studies, T47D cells were seeded at 1.25×10^4 cells in 0.2 ml of media in 96 well microtiter plates. Every 24 hr, plates received 1 μCi of methyl-^3H-thymidine (specific activity […]) (ICN Radiochemicals, Irvine, Calif.), cells were harvested 8 hr after the addition of labeled thymidine and TCA precipitable counts were determined using a Packard scintillation counter. Replicate samples varied by ≦10% and replicate studies varied by ≦15%.

T47D cells [2] = test: 3H-thymidine incorporation (DNA synthesis) in T47D cells; type: cell-based, human; conditions: 0.1 μg/ml, 72 hr, FIG. 1
Description: as §1, §2

MoAb K56 = test: FACS analysis of MoAb K56 binding in WiDr human colon carcinoma cells; type: cell-based
Description: (§3) Cells were plated in 10 cm plates, media was changed 24 hours later with no addition (control) or addition of the indicated compounds and cells were incubated at 37° C. for the indicated time (72 or 96 hours). Cells were resuspended using 10× EDTA and antigen expression was determined as described (Leon, Mesa-Tejada, Gutierrez, Estabrook, Greiner, Schlom & Fisher: Anticancer Res. 9:1639-1648, 1989; Leon, Gutierrez, Jiang, Estabrook, Waxman & Fisher: Cancer Immunol. Immmunother. 35:315-324, 1992).

CA19.9 = test: FACS analysis of CA19.9 (MoAb B67.4) in CBS human colon carcinoma cells; type: cell-based; conditions: 96 hours
Description: as §3, with “for” for “for the indicated time (72 or”, “hours.” for “hours).”, “Breiner,” for “Greiner,”, “Immuno. Immunother. 35:315-324” for “Immunol. Immmunother. 35:315-324,”

HLA Class I = test: Northern blotting, steady-state HLA Class I mRNA in T47D cells; type: cell-based, human; conditions: 72 hr; for increase in HLA class I antigen mRNA levels: 500 units/ml IFN-α or IFN-β, 50 units/ml IFN-γ, 0.1 μg/ml TPA or MEZ, densitometry
Description: FIG. 3: Effect of interferon, ADMB, TPA and MEZ, alone and in combination with H-7, on steady-state mRNA levels of HLA Class I antigens, HLA Class II-DRβ antigen, c-erbB-2, ICAM-1 and GAPDH in T47D human breast carcinoma cells. […] Cultures were also grown in the presence of 0.1 μg/ml of H-7 for 72 hr with and without the additional compounds indicated above. Total cytoplasmic RNA was isolated and processed as described in “Detailed Description Of The Invention.” Control: CON; recombinant human leukocyte interferon-A: IFN-αA; recombinant human fibroblast interferon: IFN-β; recombinant human immune interferon: IFN-γ; ADMB; 3-(N-acetylamino)-5-(N-decyl-N-methylamino)-benzyl alcohol; TPA; 12-0-tetradecanoyl-phorbol-13-acetate; MEZ; mezerein; H-7: (1-(5-isoquinolinesulfonyl)-2-methylpiperazine dihydrochloride.
Steady-state levels of HLA Class I, HLA Class II-DRβ, c-erbB-2 and ICAM-I mRNA in control and treated T47D cells were determined by Northern blotting analysis of total cytoplasmic RNA probed with appropriate ^32P-labeled gene probes as previously described. Northern blots were also probed with a ^32P-labeled glyceraldehyde phosphate dehydrogenase (GAPDH) gene probe to verify equal […] under various experimental conditions. Following hybridization, the filters were washed and exposed for autoradiography.

[3] = 72 Hour Treatment, MEZ 100 ng/ml, IFN-γ 100 U/ml
[4] = 96 Hour Treatment, MEZ 100 ng/ml, IFN-γ 100 U/ml

Molecule	effect on 72 hr growth (T47D cells [1]; T47D cells)	effect on DNA synthesis (3H-thymidine incorporation) (T47D cells [2])	increase in HLA class I antigen mRNA levels (HLA Class I) [fold]	Monoclonal Antibody Binding (MFI) MoAb K56 (MoAb K56; [3])	Monoclonal Antibody Binding (MFI) MoAb K56 (MoAb K56; [4]) [MFI]	Monoclonal Antibody Binding (MFI) MoAb B67.4 (CA19.9) (CA19.9; MEZ 1100 ng/ml, IFN-γ 100 U/ml)	also measured
CCCCCCCCCCN(C)c1cc(CO)cc(NC(C)=O)c1 [ADMB, 3-(N-acetylamino)-5-(N-decyl-N-methylamino)-benzyl alcohol]	only marginally altered	only marginally altered					Monoclonal Antibody Binding (MFI) MoAb K56 (MoAb K56; 72 Hour Treatment, ADMB 0.01 μg/ml): 844 MFI; Monoclonal Antibody Binding (MFI) MoAb K56 (MoAb K56; 72 Hour Treatment, ADMB 0.1 μg/ml): 715 MFI; Monoclonal Antibody Binding (MFI) MoAb K56 (MoAb K56; 72 Hour Treatment, ADMB 1.0 μg/ml): 879 MFI; Monoclonal Antibody Binding (MFI) MoAb K56 (MoAb K56; 96 Hour Treatment, ADMB 0.01 μg/ml): 827 MFI; Monoclonal Antibody Binding (MFI) MoAb K56 (MoAb K56; 96 Hour Treatment, ADMB 0.1 μg/ml): 1116 MFI; Monoclonal Antibody Binding (MFI) MoAb K56 (MoAb K56; 96 Hour Treatment, ADMB 1.0 μg/ml): 1008 MFI; Monoclonal Antibody Binding (MFI) MoAb B67.4 (CA19.9) (CA19.9; ADMB 0.01 μg/ml): 3562* MFI; Monoclonal Antibody Binding (MFI) MoAb B67.4 (CA19.9) (CA19.9; ADMB 0.1 μg/ml): 3473* MFI; Monoclonal Antibody Binding (MFI) MoAb B67.4 (CA19.9) (CA19.9; ADMB 1.0 g/ml): 3962* MFI
CC1CNCCN1S(=O)(=O)c1cccc2cnccc12.Cl.Cl (stereo not shown) [H-7, 1-(5-isoquinolinesulfonyl)-2-methylpiperazine dihydrochloride]							alteration of HLA class I mRNA levels by H-7 (HLA Class I; 0.1 μg/ml H-7): ≤ 1.2 fold
C=C(C)[C@@]12O[C@@]3(c4ccccc4)O[C@@H]1[C@@H]1[C@@H]4O[C@]4(CO)[C@@H](O)[C@]4(O)C(=O)C(C)=C[C@H]4[C@@]1(O3)[C@H](C)[C@H]2OC(=O)/C=C/C=C/c1ccccc1 [MEZ, mezerein]	only marginally altered	only marginally altered	1.75	964* MFI	1104	3288* MFI	72 hr growth suppression in combination with H-7 (T47D cells [1]; T47D cells, in combination with 0.1 μg/ml of H-7, data not shown): No additive or synergistic effect
CCCCCCCCCCCCCC(=O)O[C@@H]1[C@@H](C)[C@@]2(O)[C@@H](C=C(CO)C[C@]3(O)C(=O)C(C)=C[C@@H]23)[C@H]2C(C)(C)[C@]12OC(C)=O [TPA, 12-0-tetradecanoyl-phorbol-13-acetate]	suppressed to the greatest degree	suppressed to the greatest degree	1.3				72 hr growth suppression in combination with H-7 (T47D cells [1]): No additive or synergistic effect
B1			2.1				
B2			1.8	1046* MFI	1021	4970* MFI	
